What is called IC50 is the concentration that inhibits the measured activity by half.

Assay [1] concerns the target PGE2 receptor (EP2) (MP412) (Mus musculus, UniProt P32240). The experiment in a line: Inhibition of [3H]-PGE2 binding to MP412-transfected COS-1 cell membranes. The settings on record: for inhibition of PGE2 binding by subtype ligands: FIG. 8; for order of inhibition of specific [3H]-PGE2 binding by unlabeled PG: FIG. 7. As for the experimental part: Mouse mastocytoma P-815 cell cDNA library carring cDNAs larger than 2.0 kb was prepared according to Example 1 (2). The probe DNA was prepared by PCR using mouse EP3 cDNA as a template; this 482 bp fragment covers the transmembrane segments I-IV region of the EP3 receptor. The 2.0×10^5 clones derived from the cDNA library were screened under either high (Sambrook) or low stringency condition. […] This cDNA was transfected into COS-1 cells according to the same manner as in Example 1 (3).
After the COS-1 cells carring the plasmid DNA obtained in above (1) were cultured for 72 h, cells were harvested and cell membranes were prepared.

Assay [2] addresses T1, PGE2 receptor (EP3), subtype EP3α (MP660) (Mus musculus, UniProt P30557).
T1 sequence (P30557 1-365): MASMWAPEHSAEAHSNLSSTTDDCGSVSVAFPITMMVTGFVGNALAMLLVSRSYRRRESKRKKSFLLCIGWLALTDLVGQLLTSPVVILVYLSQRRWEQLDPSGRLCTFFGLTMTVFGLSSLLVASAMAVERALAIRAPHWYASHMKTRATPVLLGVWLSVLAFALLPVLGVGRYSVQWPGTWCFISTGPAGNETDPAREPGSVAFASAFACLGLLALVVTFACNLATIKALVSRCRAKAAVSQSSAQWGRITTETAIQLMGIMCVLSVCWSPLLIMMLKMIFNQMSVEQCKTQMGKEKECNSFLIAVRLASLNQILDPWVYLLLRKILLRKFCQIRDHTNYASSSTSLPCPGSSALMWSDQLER
The experiment in a line: Inhibition of [3H]-PGE2 binding to MP660-transfected COS-1 cell membranes; ligand-binding test. The note with it: for potency in competing for [3H]PGE2 binding relative to PGE2 / competition for [3H]PGE2 binding: FIG. 2b; for competition for [3H]PGE2 binding: PGE analogues; for order of inhibition of [3H]PGE2 binding by unlabeled PGs: FIG. 2a. The source says: (§1) The cDNA of MP660 was cleaved out with EcoRI and inserted to pcDNAI (Invitrogen) and subcloned, followed by transfection of this plasmid DNA to COS-1 cells by the DEAE-dextran method [D. J. Sussmann and G. Milman, Mol. Cell. Biol., 4, 1641 (1984)]. After 72-hour cultivation, cells were harvested and cell membranes were separated [M. Hirata al., Nature, 349, 617 (1991)].

For assay [3], the target named is T2, EP3α receptor (MP660/KCR cells) (Mus musculus, UniProt P30557).
T2 construct: A full-length DNA clone having a 1,095 bp open reading frame, MP660, was thus obtained; expressed in transfected cells; host or cells: CHO-dhfr (lacking dihydrofolate reductase activity) cells; FERM BP-3803)
T2 sequence (P30557 1-365): T1 sequence (P30557 1-365)
The experiment in a line: Forskolin-stimulated cAMP synthesis in CHO cells stably expressing EP3α (MP660/KCR cells). Format: cell-based. As for the experimental part:
(§2) To obtain cells that stably express the receptor gene, cDNA transfection was conducted by the method described by Nakajima et al. [J. Biol. Chem., 267, 2437 (1992)] to establish a cell line. Specifically, the EcoRI fragment of MP660 was inserted to pdKCR-dhfr [S. Oikawa et al., Biochem. Biophys. Res. Commun., 164, 39 (1989)], a eukaryotic cell expression vector having the mouse dhfr gene as a selection marker. This plasmid was transfected to CHO-dhfr (lacking dihydrofolate reductase activity) cells [G. Urlaub and L. A. Chasin, Proc. Natl. Acad. Sci. USA, 77, 4216 (1980)] by the calcium phosphate method [F. L. Graham and A. J. van der Eb, Virology, 52, 456 (1973)]. The cells were subjected to selection culture in α-modified Eagle's medium [S. Oikawa et al., Biochem. Biophys. Res. Commun., 164, 39 (1989)] which contained no ribonucleoside and deoxyribonucleoside and which contained 100 unit/ml penicillin, 100 μg/ml streptomycin and 10% dialyzed bovine fetal serum (Cell Culture Laboratories). The cells which proliferated were cloned and clone cells were obtained. EP3α receptor cDNA transfection was confirmed by the RNA blotting method.

The test system of assay [4] is EP3β receptor (MP653/KCR cells). The experiment in a line: Forskolin-stimulated cAMP synthesis in CHO cells stably expressing EP3β (MP653/KCR cells). Format: cell-based, mouse. As for the experimental part:
as §2, with “of MP653” for “of MP660”, “to CHO-dhfr(lacking” for “to CHO-dhfr (lacking”, “method [(F.” for “method [F.”, “cloned to have” for “cloned and”, “clone cells. EP3β” for “clone cells were obtained. EP3α”, “method. Using thus-obtained CHO cells which constantly express the EP3β receptor [MP653/KCR cells; IFO 50397, FERM BP-4183], the effect of PGE2 on forskolin-stimulated cAMP synthesis or M&B28, 767, an EP3 -specific agonist was assessed.” for “method.”

The next assay deals with EP2. The settings on record: literature; cited from earlier work.
The next assay has as its target T3, EP2 receptor (MP412) (Mus musculus, UniProt P32240).
T3 construct: cAMP and inositol phosphate tests
The experiment in a line: cAMP assay in MP412-transfected COS-1 cells. Format: cell-based. (Cyclic AMP is a second messenger, typically raised through Gs and lowered through Gi signalling.)

In the next assay the test system is EP3β receptor (MP653). The experiment in a line: Ligand-binding assay, [3H]-PGE2 binding to MP653-transfected COS-1 cell membranes. More on the design: species or system mouse.
Text: as §1, with “MP653” for “MP660”, “Hirata et” for “Hirata”, “(1991)]. […] Also, the PGE2 receptor obtained was identified as the subtype EP3β receptor. The result of inhibitory activities of various ligands on the binding of [^3 H]-PGE2 to the MP653-transfected cell membrance was substantially the same as on the binding of [^3 H]-PGE2 to the MP660--transfected cell membrance obtained in Example 1.” for “(1991)].”

The subject of assay [5] is membranes of untransfected cells. As to the kind of experiment: [3H]-PGE2 binding to membranes of untransfected COS-1 cells (control). The settings on record: untransfected COS-1 cell membranes. The source says: The cDNA of MP660 was cleaved out with EcoRI and inserted to pcDNAI (Invitrogen) and subcloned, followed by transfection of this plasmid DNA to COS-1 cells by the DEAE-dextran method [D. J. Sussmann and G. Milman, Mol. Cell. Biol., 4, 1641 (1984)]. After 72-hour cultivation, cells were harvested and cell membranes were separated [M. Hirata al., Nature, 349, 617 (1991)]. […] Also, the PGE2 receptor obtained was identified as the subtype EP3α receptor.
After the COS-1 cells carring the plasmid DNA obtained in above (1) were cultured for 72 h, cells were harvested and cell membranes were prepared. […] The lack of binding activity of butaprost in mouse EP2 might indicate that the action of butaprost is species specific or there may be other forms of EP2 receptor subtype.

PGE2 receptor (EP2) (MP412), sequence (P32240 whole entry, the tested form may be a part): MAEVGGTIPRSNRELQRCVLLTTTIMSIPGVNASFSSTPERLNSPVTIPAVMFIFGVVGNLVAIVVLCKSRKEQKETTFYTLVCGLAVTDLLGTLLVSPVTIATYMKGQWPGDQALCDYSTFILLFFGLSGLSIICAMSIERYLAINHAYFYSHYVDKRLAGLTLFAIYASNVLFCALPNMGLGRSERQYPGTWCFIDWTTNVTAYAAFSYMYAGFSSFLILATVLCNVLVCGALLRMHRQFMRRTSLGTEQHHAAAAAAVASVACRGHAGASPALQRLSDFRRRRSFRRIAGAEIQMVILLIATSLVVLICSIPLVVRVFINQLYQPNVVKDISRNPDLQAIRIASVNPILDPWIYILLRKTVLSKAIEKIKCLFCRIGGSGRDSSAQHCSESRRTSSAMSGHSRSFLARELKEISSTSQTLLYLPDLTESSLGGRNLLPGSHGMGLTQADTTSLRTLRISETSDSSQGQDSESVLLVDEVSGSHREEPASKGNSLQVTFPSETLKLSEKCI
T3 sequence (P32240 whole entry): as the sequence (P32240 whole entry, the tested form may be a part) above
Experimental for EP2 receptor (MP412): For cAMP assay, the plasmid DNA was transfected into COS-1 cells by the lipofection method (P. L. Felgner et al., Proc. Natl. Acad. Sci., 84, 7413 (1987)) and cultured for 72 h in a 24-well plate. Cyclic AMP levels in the cells were determined according to the method of Nakajima et al. (J. Biol. Chem. 267, 2437 (1992)).

Consider `CCCCC(C)(O)C/C=C/[C@H]1[C@H](O)CC(=O)[C@@H]1CCCCCCC(=O)OC` (mixture of isomers) [misoprostol], for which the “inhibition of PGE2 binding by subtype ligands” value (from here on “inhibition of PGE2 binding”) in assay [1] is recorded as “inhibited”.

Take `O=C(CC/C=C\CC[C@H]1C(=O)C[C@@H](O)[C@@H]1OCC(O)COc1ccccc1)Oc1ccc(NC(=O)c2ccccc2)cc1` (some centres unmarked) [GR 63799X]: in assay [2], the “potency in competing for [3H]PGE2 binding relative to PGE2” value is given as “more potent than PGE2 itself” and the “competition for [3H]PGE2 binding” value was “specifically competed for the[^3 H]PGE2 binding with equal potency”.

Consider `O=C(O)CCCCCC[C@H]1C(=O)CC[C@@H]1/C=C/[C@@H](O)COc1ccccc1` [M&B 28,767], for which, in assay [2], the “potency in competing for [3H]PGE2 binding relative to PGE2” value is reported as “more potent than PGE2 itself” and the “competition for [3H]PGE2 binding” value is “specifically competed for the[^3 H]PGE2 binding with equal potency”. Moreover, in assay [3] (FIG. 3), the “effect on forskolin-induced cAMP synthesis/accumulation” value was “inhibited forskolin-induced cAMP synthesis” and the “potency in inhibiting forskolin-induced cAMP synthesis relative to PGE2” value is “more potent than (PGE2”. Also, the “effect on forskolin-stimulated cAMP synthesis” value in assay [4] is given as “cAMP synthesis in MP653/KCR cells is inhibited”. Besides, in assay [1], the “inhibition of PGE2 binding” value is listed as “more weakly”. In addition, the “cross-reaction to EP2” value in the assay on EP2 is on record as “weak cross-reaction”.

As to `CCCCC[C@H](O)/C=C/[C@H]1C(=O)C[C@H](O)[C@@H]1C/C=C\CCCC(=O)O` [PGD2], the “order of inhibition of [3H]PGE2 binding by unlabeled PGs” value (“order of inhibition of [3H]PGE2 binding” for short) in assay [2] is recorded as “PGE2 =PGE1 >iloprost, a PGI2 analogue>PGF2α >PGD2”. Further, the “order of inhibition of specific [3H]-PGE2 binding by unlabeled PG” value (from here on “order of inhibition of specific”) in assay [1] is given as “PGE2 (.largecircle.)=PGE1 (.circle-solid.)>>iloprost(.box-solid.), a stable PGI2 analogue ≥PGF2α (Δ)PGD2 (.quadrature.)”.

With `CCCCC[C@H](O)/C=C/[C@H]1[C@H](O)CC(=O)[C@@H]1CCCCCCC(=O)O` [PGE1], in assay [2], the “order of inhibition of [3H]PGE2 binding” value is listed as “PGE2 =PGE1 >iloprost, a PGI2 analogue>PGF2α >PGD2”. Moreover, the “order of inhibition of specific” value in assay [1] was “PGE2 (.largecircle.)=PGE1 (.circle-solid.)>>iloprost(.box-solid.), a stable PGI2 analogue ≥PGF2α (Δ)PGD2 (.quadrature.)”.

`CCCCC[C@H](O)/C=C/[C@H]1[C@H](O)CC(=O)[C@@H]1C/C=C\CCCC(=O)O` [PGE2, prostaglandin E2]: the “order of inhibition of [3H]PGE2 binding” value in assay [2] is “PGE2 =PGE1 >iloprost, a PGI2 analogue>PGF2α >PGD2”. For the same compound, the “effect on forskolin-induced cAMP synthesis/accumulation” value in assay [3] (FIG. 3) is “dosedependent decrease”. Also, the IC50 in assay [3] (forskolin-induced, FIG. 3, read-out: IC50 (inhibition of forskolin-induced cAMP synthesis)) was 0.1 nM. Besides, in assay [4], the “effect on forskolin-stimulated cAMP synthesis” value was “cAMP synthesis in MP653/KCR cells is inhibited”. The “order of inhibition of specific” value in assay [1] is listed as “PGE2 (.largecircle.)=PGE1 (.circle-solid.)>>iloprost(.box-solid.), a stable PGI2 analogue ≥PGF2α (Δ)PGD2 (.quadrature.)”. The “inhibition of forskolin-induced cAMP formation” value against EP2 receptor (MP412) (forskolin) is given as “neither inhibited forskolin-induced cAMP formation”. Besides, the cAMP level result on EP2 receptor (MP412) (no forskolin stated, FIG. 9) is given as “dose-dependently increased cAMP level”.

As for `CCCCC[C@H](O)/C=C/[C@@H]1[C@@H](C/C=C\CCCC(=O)O)[C@@H](O)C[C@H]1O` [PGF2α], the “order of inhibition of [3H]PGE2 binding” value in assay [2] is “PGE2 =PGE1 >iloprost, a PGI2 analogue>PGF2α >PGD2”. Besides, the “order of inhibition of specific” value in assay [1] is listed as “PGE2 (.largecircle.)=PGE1 (.circle-solid.)>>iloprost(.box-solid.), a stable PGI2 analogue ≥PGF2α (Δ)PGD2 (.quadrature.)”.

Turning to `CC(=O)NNC(=O)N1Cc2ccccc2Oc2ccc(Cl)cc21` [SC-19220], in assay [2], the “competition for [3H]PGE2 binding” value is reported as “no competition was found at all”. Besides, the “inhibition of PGE2 binding” value in assay [1] was “did not inhibit it”.

For the compound `CCCCC[C@H](O)/C=C/[C@H]1[C@H](O)CC(=O)[C@@H]1C/C=C\CCCC(=O)O` [[3H]-PGE2], the “specific binding of [3H]-labeled prostaglandin” value (in assay [2]; in the assay on EP3β receptor (MP653); in assay [1]) was “found to show specific binding” throughout. Besides, the “binding to membranes of untransfected cells” value is listed as “almost negligible” in assay [5] (listed as [^3 H]-PGE2) and “did not bind to membranes of untransfected cells” in assay [5] (listed as [^3 H]PGE2).

In the case of `CCCC1([C@H](O)C/C=C/[C@H]2[C@H](O)CC(=O)[C@@H]2CCCCCCC(=O)OC)CCC1` [butaprost], the “competition for [3H]PGE2 binding” value in assay [2] was “no competition was found at all”. In addition, the “inhibition of PGE2 binding” value in assay [1] was “did not inhibit it”.

For `CC#CCC(C)[C@H](O)/C=C/[C@@H]1[C@H]2C/C(=C/CCCC(=O)O)C[C@H]2C[C@H]1O` (some centres unmarked) [iloprost], the “order of inhibition of [3H]PGE2 binding” value in assay [2] is “PGE2 =PGE1 >iloprost, a PGI2 analogue>PGF2α >PGD2”. Besides, the “order of inhibition of specific” value in assay [1] was “PGE2 (.largecircle.)=PGE1 (.circle-solid.)>>iloprost(.box-solid.), a stable PGI2 analogue ≥PGF2α (Δ)PGD2 (.quadrature.)”.

Consider `CS(=O)(=O)NC(=O)CCC/C=C\C[C@H]1C(=O)C[C@@H](O)[C@@H]1/C=C/[C@@H](O)COc1ccccc1` [sulprostone], for which the “inhibition of PGE2 binding” value in assay [1] is reported as “did not inhibit it”.

The record behind these values is patent publication US5804415A, “Prostaglandin E receptors, their DNA and production” (Takeda Chemical Industries, Ltd., priority 1992, dated 1998).
